# Source: patent US7732504B2, “Functionalized photoinitiators” (Ciba Specialty Chemicals Corporation, priority 2004, dated 2010)
# Tests used:
# [1] = Solubility of the initiator in the blue offset printing ink formulation; format: physicochemical; set-up: key: good (+); acceptable (±); bad (−)
# Procedure: (§1) A photocurable blue offset printing ink is prepared in accordance with the following formulation: […]
# 18.3 g of Ebecryl® 1608 (UCB, Belgium)
# 18.3 g of Ebecryl® 657 (polyester acrylate from UCB, Belgium)
# 20.0 g of Ebecryl® 220 (urethane acrylate from UCB, Belgium)
# 20.9 g of Ebecryl® 150 (bisphenol A derivative diacrylate from UCB, Belgium)
# 22.5 g Irgalit blue GLO (Cu-phthalocyanine pigment from Ciba Specialty Chemicals)
# (§2) The above components are grounded down to a stock paste. Portions of the stock paste are mixed with the photoinitiators indicated in the table (% by weight on the stock paste). The solubility of the initiator in the formulation is rated as good (+), acceptable (±) or bad (−) and the results shown in Table 1.
# [2] = Curing of a blue offset printing ink on white paper (maximum rate of passage, 80 W/cm mercury lamp); conditions: for curing rate (m/min) for surface cure / curing rate (m/min) for through cure: blue offset ink 1.5 g/m^2 on white paper, 80 W/cm mercury lamp
# Procedure: Curing of a Blue Offset Printing Ink on White Paper
# as §1, §2
# The blue printing ink thus obtained is applied with 1.5 g/m^2 (˜1.5 μm thickness) on white paper using a Prüfbau laboratory printing equipment. The samples are exposed in an irradiation apparatus with a 80 W/cm mercury lamp (IST). The rate of passage of the sample through the irradiation apparatus is thereby increased continuously until adequate curing no longer occurs. The odor of the cured film is rated on a scale from 1 (odorless) to 3 (strong odor).
# [3] = Solubility of the initiator in the blue flexo printing ink formulation; format: physicochemical; set-up: key: good (+); acceptable (±); bad (−); conditions: photoinitiator conc 6.0 % by weight on the stock paste
# Procedure: (§3) A photocurable blue flexo printing ink is prepared in accordance with the following formulation: […]
# 26.9 g of IRR 440 (flexo basic resin)
# 19.0 g of OTA 480 (acrylated trifunctional resin, UCB, Belgium)
# 18.0 g of Ebecryl® 645 (modified diacrylate of Bisphenol A epoxy resin diluted with 25% of TPGDA, from UCB, Belgium)
# 13.0 g of HDDA (1,6-hexanediol diacrylate)
# 10.0 g of Ebecryl® 220 (urethane acrylate from UCB, Belgium)
# 1.3 g of Ebecryl® 168 (methacrylated acidic compound from UCB, Belgium)
# 0.7 g of DC 57 (Leveling agent)
# 11.1 g Irgalit blue GLO (Cu-phthalocyanine pigment from Ciba Specialty Chemicals)
# (§4) The above components are grounded down to a stock paste. Portions of the stock paste are mixed with the photoinitiators indicated in the table (% by weight on the stock paste). The solubility of the initiator in the formulation is rated as good (+), acceptable (±) or bad (−) and the results shown in Table 2.
# [4] = Curing of a blue flexo printing ink on a white polyethylene foil (maximum rate of passage, 120 W/cm mercury lamp); conditions: conc 6.0 %, blue flexo ink on corona treated white polyethylene foil
# Procedure: Curing of a Blue Flexo Printing Ink on a White Polyethylene Foil
# as §3, §4
# The blue printing ink thus obtained is applied with […] 1.5 μm thickness on a corona treated white polyethylene foil using a Prüfbau laboratory printing equipment. The samples are exposed in an irradiation apparatus with a 120 W/cm mercury lamp (IST). The rate of passage of the sample through the irradiation apparatus is thereby increased continuously until adequate curing no longer occurs. The adhesion of the cured film to the foil is measure by the Tesa tape test.
# [5] = photoinitiator conc 4.0 % by weight on the stock paste
# [6] = photoinitiator conc 3.0 % by weight on the stock paste
Compound,melting point,"solubility [1, 5]",curing rate (m/min) for surface cure ([2]; conc 4.0 %),curing rate (m/min) for through cure ([2]; conc 4.0 %),"solubility [1, 6]","efficiency as a photoinitiator compared with the reference compounds ([2]; blue offset printing ink, versus Irgacure 369 and Irgacure 907)",curing rate (m/min) for surface cure ([2]; conc 3.0 %),curing rate (m/min) for through cure ([2]; conc 3.0 %),solubility [3],curing rate (m/min) for surface cure [4],curing rate (m/min) for through cure [4]
CCCC(CC)(C(=O)c1ccc(NCCO)cc1)N(C)C (stereo not shown),74 to 77 °C,,,,,,,,,,
CSc1ccc(C(=O)C(C)(C)N2CCOCC2)cc1 [Irgacure 907],,+,80 m/min,90 m/min,,,,,,,
"CCC(Cc1ccccc1)(C(=O)c1ccc(NCCO)cc1)N(C)C (stereo not shown) [Example 1, 2-benzyl-1-[4-(2-hydroxyethylamino)phenyl]-2-dimethylamino-1-butanone]",109 to 111 °C,+,140 m/min,170 m/min,+,more efficient as a photoinitiator than the reference compounds,100 m/min,120 m/min,+,200 m/min,40 m/min
"CCC(Cc1ccccc1)(C(=O)c1ccc(N2CCOCC2)cc1)N(C)C (stereo not shown) [Irgacure 369, 2-benzyl-2-(dimethylamino)-1-[4-(4-morpholinyl)phenyl]-1-butanone]",,−,90 m/min,130 m/min,−,,70 m/min,110 m/min,+,170 m/min,90 m/min
"CC(C)(C(=O)c1ccc(NCCO)cc1)N1CCOCC1 [Example 6, 1-[4-(2-hydroxyethyamino)phenyl]-2-methyl-2-(morpholin-4-yl)-1-propanone]",77 to 78 °C,,,,,,,,,,
